The values below come from US20260083727A1, “PHARMACEUTICAL FORMULATIONS OF NINTEDANIB FOR INTRAOCULAR USE” (Boehringer Ingelheim International GmbH, priority 2022, published 2026).

This series can be described thus: Water solubility. The class given is physicochemical. The following applies: in words.

For `COC(=O)c1ccc2c(c1)NC(=O)/C2=C(\Nc1ccc(N(C)C(=O)CN2CCN(C)CC2)cc1)c1ccccc1` [nintedanib (free base)], the solubility in water entry was “very poor”.
